Measurements: PubChem BioAssay AID248 (DTP/NCI, 2004)
“And” between values parts separate entries of the source, which are not always exact repeats. Identical values can stand only once. Inconclusive results and toxic doses are left out. Rule as the data show it: active = T/C of 150% or more; inactive = T/C below 125%.

System: L1210 leukemia ip in BDF1 mice, survival T/C
Assay: NCI In Vivo Anticancer Drug Screen. Data for tumor model L1210 Leukemia (intraperitoneal) in B6D2F1 (BDF1) mice
Settings: endpoint: mean survival time, higher = longer survival
Outline: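 Survival endpoint. Drug-treated group vs vehicle group, expressed as T divided by C. Tumor passaged by transplantation.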

[1] = dose: 100.0 mg/kg/injection, schedule: Q01DX009 (ip), vehicle: Klucel (hydroxypropylcellulose) (HPC)
[2] = dose: 100.0 mg/kg/injection, schedule: Q04DX003 (ip), vehicle: Klucel (hydroxypropylcellulose) (HPC)
[3] = dose: 200.0 mg/kg/injection, schedule: Q01DX009 (ip), vehicle: Klucel (hydroxypropylcellulose) (HPC)
[4] = dose: 200.0 mg/kg/injection, schedule: Q04DX003 (ip), vehicle: Klucel (hydroxypropylcellulose) (HPC)
[5] = dose: 400.0 mg/kg/injection, schedule: Q01DX009 (ip), vehicle: Klucel (hydroxypropylcellulose) (HPC)
[6] = dose: 400.0 mg/kg/injection, schedule: Q04DX003 (ip), vehicle: Klucel (hydroxypropylcellulose) (HPC)
[7] = dose: 100.0 mg/kg/injection, schedule: Q01DX009 (ip), vehicle: saline
[8] = dose: 200.0 mg/kg/injection, schedule: Q01DX009 (ip), vehicle: saline
[9] = dose: 400.0 mg/kg/injection, schedule: Q01DX009 (ip), vehicle: saline
[10] = dose: 100.0 mg/kg/injection, schedule: Q01DX001 (ip), vehicle: saline
[11] = dose: 200.0 mg/kg/injection, schedule: Q01DX001 (ip), vehicle: saline
[12] = dose: 400.0 mg/kg/injection, schedule: Q01DX001 (ip), vehicle: saline
[13] = dose: 100.0 mg/kg/injection, schedule: Q01DX001 (ip), vehicle: other
[14] = dose: 200.0 mg/kg/injection, schedule: Q01DX001 (ip), vehicle: other
[15] = dose: 400.0 mg/kg/injection, schedule: Q01DX001 (ip), vehicle: other
[16] = dose: 100.0 mg/kg/injection, schedule: Q04DX003 (ip), vehicle: saline
[17] = dose: 200.0 mg/kg/injection, schedule: Q04DX003 (ip), vehicle: saline
[18] = dose: 50.0 mg/kg/injection, schedule: Q04DX003 (ip), vehicle: saline

Measured: T/C

CCCCC(CCCC)NCC(C)OC(=O)c1ccc(N)cc1 (stereo unspecified)
inactive: dose: 9.5 mg/kg/injection, schedule: Q01DX001 (ip), vehicle: other 100 % of control | dose: 19.0 mg/kg/injection, schedule: Q01DX001 (ip), vehicle: other 105 % of control | dose: 38.0 mg/kg/injection, schedule: Q01DX001 (ip), vehicle: other 96 % of control | dose: 75.0 mg/kg/injection, schedule: Q01DX001 (ip), vehicle: other 92 % of control

CCOC(=O)CC1=CCCCC1
inactive: [1] 103 % of control | [2] 102 % of control | [3] 107 % of control | [4] 96 % of control | [5] 98 % of control | [6] 86 % of control

COc1cc2c(cc1O)CCCC(C)(C)C2=O
inactive: dose: 50.0 mg/kg/injection, schedule: Q01DX009 (ip), vehicle: saline with Tween-80 104 % of control | dose: 100.0 mg/kg/injection, schedule: Q01DX009 (ip), vehicle: saline with Tween-80 93 % of control | dose: 200.0 mg/kg/injection, schedule: Q01DX009 (ip), vehicle: saline with Tween-80 90 % of control

ClC(Cl)=[C](Cl)[Hg][C](Cl)=C(Cl)Cl
inactive: dose: 0.39 mg/kg/injection, schedule: Q01DX009 (ip), vehicle: saline with Tween-80 96 % of control | dose: 0.78 mg/kg/injection, schedule: Q01DX009 (ip), vehicle: saline with Tween-80 97 % of control | dose: 1.56 mg/kg/injection, schedule: Q01DX009 (ip), vehicle: saline with Tween-80 93 % of control and 86 % of control

COc1ccc2c(c1)NCc1c(Br)cc(Br)cc1C2=O
inactive: [7] 94 % of control | [8] 93 % of control | [9] 91 % of control

COCC1OC(OC)C(NC(C)=O)C(OC)C1OC (stereo unspecified)
inactive: [10] 101 % of control | [11] 101 % of control | [12] 96 % of control

O=c1[nH]c2ccccc2cc1Br
inactive: [13] 96 % of control | [14] 96 % of control | [15] 105 % of control

NC(=S)N/N=C(/c1cccs1)C1CC1
inactive: dose: 4.0 mg/kg/injection, schedule: Q01DX Z (ip), vehicle: carboxymethylcellulose (CMC) 116 % of control | dose: 4.0 mg/kg/injection, schedule: Q01DX Z (oral), vehicle: carboxymethylcellulose (CMC) 97 % of control | dose: 8.0 mg/kg/injection, schedule: Q01DX Z (ip), vehicle: carboxymethylcellulose (CMC) 107 % of control | dose: 8.0 mg/kg/injection, schedule: Q01DX Z (oral), vehicle: carboxymethylcellulose (CMC) 115 % of control | dose: 16.0 mg/kg/injection, schedule: Q01DX Z (oral), vehicle: carboxymethylcellulose (CMC) 107 % of control

Cc1ccc(S(=O)(=O)NCCCCC(N)C(=O)O)cc1 (stereo unspecified)
inactive: [1] 98 % of control | [2] 98 % of control | [3] 98 % of control | [4] 108 % of control | [5] 100 % of control | [6] 98 % of control

O=[N+]([O-])c1ccc(N=C=S)cc1
inactive: dose: 25.0 mg/kg/injection, schedule: Q04DX003 (ip), vehicle: Klucel (hydroxypropylcellulose) (HPC) 95 % of control | dose: 50.0 mg/kg/injection, schedule: Q04DX003 (ip), vehicle: Klucel (hydroxypropylcellulose) (HPC) 95 % of control | [2] 93 % of control

O=C(O)c1cccc2c1C(Br)C(Br)c1ccccc1-2 (stereo unspecified)
inactive: [16] 94 % of control | [17] 94 % of control | dose: 400.0 mg/kg/injection, schedule: Q04DX003 (ip), vehicle: saline 92 % of control

Cn1cc[nH]c1=S
inactive: dose: 25.0 mg/kg/injection, schedule: Q04DX003 (ip), vehicle: saline 114 % of control | [18] 90 % of control | [10] 110 % of control | [16] 98 % of control | [11] 107 % of control | [12] 105 % of control

Cc1cccc(-c2nc(N)nc(N)n2)c1
inactive: dose: 75.0 mg/kg/injection, schedule: Q01DX001 (ip), vehicle: saline 106 % of control | dose: 150.0 mg/kg/injection, schedule: Q01DX001 (ip), vehicle: saline 104 % of control | dose: 300.0 mg/kg/injection, schedule: Q01DX001 (ip), vehicle: saline 101 % of control

CCCCC/C(=N/NC(N)=O)C(OC)OC
inactive: [13] 92 % of control | [14] 92 % of control | [15] 97 % of control

CCOC(=O)CCSc1ccc(NC)cc1
inactive: [7] 94 % of control | dose: 100.0 mg/kg/injection, schedule: Q04DX003 (ip), vehicle: acetone 102 % of control | [8] 96 % of control | dose: 200.0 mg/kg/injection, schedule: Q04DX003 (ip), vehicle: acetone 102 % of control | [9] 97 % of control | dose: 400.0 mg/kg/injection, schedule: Q04DX003 (ip), vehicle: acetone 105 % of control

O=S(CCCl)c1ccccc1 (stereo unspecified)
inactive: [2] 98 % of control | [4] 98 % of control | [6] 98 % of control

CCCCCC1(C=O)C(=O)NC(=O)N1C (stereo unspecified)
inactive: [10] 102 % of control | [11] 93 % of control | [12] 87 % of control

Cc1ccc(Oc2c3c(nc4ccccc24)CCCC3)cc1
inactive: [1] 104 % of control | [2] 101 % of control | [3] 98 % of control | [4] 96 % of control | [5] 96 % of control | [6] 93 % of control

Cc1ccc(C(C)(C#N)Nc2ccccc2)cc1 (stereo unspecified)
inactive: dose: 100.0 mg/kg/injection, schedule: Q01DX001 (ip), vehicle: Klucel (hydroxypropylcellulose) (HPC) 88 % of control | [2] 105 % of control | dose: 200.0 mg/kg/injection, schedule: Q01DX001 (ip), vehicle: Klucel (hydroxypropylcellulose) (HPC) 91 % of control | [4] 95 % of control | dose: 400.0 mg/kg/injection, schedule: Q01DX001 (ip), vehicle: Klucel (hydroxypropylcellulose) (HPC) 92 % of control | [6] 105 % of control

COc1ccc(/C=C2/COC/C(=C\c3ccc(OC)cc3)C2=O)cc1
inactive: [7] 91 % of control | [8] 91 % of control | [9] 91 % of control

CCS[S+](CC)CC
inactive: dose: 6.25 mg/kg/injection, schedule: Q01DX009 (ip), vehicle: saline with Tween-80 98 % of control | dose: 12.5 mg/kg/injection, schedule: Q01DX009 (ip), vehicle: saline with Tween-80 102 % of control

Cc1ccc(S(=O)(=O)OCCC2(C)CC2)cc1
inactive: dose: 100.0 mg/kg/injection, schedule: Q01DX001 (ip), vehicle: saline with Tween-80 93 % of control | dose: 200.0 mg/kg/injection, schedule: Q01DX001 (ip), vehicle: saline with Tween-80 90 % of control | dose: 400.0 mg/kg/injection, schedule: Q01DX001 (ip), vehicle: saline with Tween-80 90 % of control

c1ccc2nc(N3CCCCC3)c(N3CCCCC3)nc2c1
inactive: dose: 222.0 mg/kg/injection, schedule: Q01DX Z (ip), vehicle: methylcellulose (MC) 108 % of control | dose: 333.0 mg/kg/injection, schedule: Q01DX Z (ip), vehicle: methylcellulose (MC) 96 % of control | dose: 500.0 mg/kg/injection, schedule: Q01DX Z (ip), vehicle: methylcellulose (MC) 92 % of control

NCCCOc1ccc([N+](=O)[O-])cc1
inactive: dose: 50.0 mg/kg/injection, schedule: Q01DX001 (ip), vehicle: saline 100 % of control | dose: 50.0 mg/kg/injection, schedule: Q01DX009 (ip), vehicle: saline 104 % of control and 109 % of control | [18] 95 % of control | [10] 101 % of control | [7] 102 % of control and 107 % of control | dose: 100.0 mg/kg/injection, schedule: Q04DX002 (ip), vehicle: saline 96 % of control and 89 % of control | [16] 114 % of control | [11] 100 % of control | [8] 100 % of control | dose: 200.0 mg/kg/injection, schedule: Q04DX002 (ip), vehicle: saline 93 % of control and 96 % of control | [17] 106 % of control

CC(=O)CC(=O)Nc1cccc(C)n1
inactive: [10] 100 % of control | dose: 100.0 mg/kg/injection, schedule: Q04DX002 (ip), vehicle: Klucel (hydroxypropylcellulose) (HPC) 94 % of control | [11] 110 % of control | dose: 200.0 mg/kg/injection, schedule: Q04DX002 (ip), vehicle: Klucel (hydroxypropylcellulose) (HPC) 97 % of control

CC(=O)N(c1ccccc1)c1ccc(-c2ccc(N(C(C)=O)c3ccccc3)cc2)cc1
inactive: dose: 50.0 mg/kg/injection, schedule: Q01DX001 (ip), vehicle: other 100 % of control | [13] 105 % of control | [14] 100 % of control | [15] 89 % of control

Cc1cccc(NC(=O)c2cccc(C(=O)Nc3cccc(C)c3C)c2)c1C
inactive: [1] 96 % of control | [2] 88 % of control | [3] 100 % of control | [4] 88 % of control | [5] 96 % of control | [6] 93 % of control

CCOC(=O)C(=O)C1CCCCC1=O (stereo unspecified)
inactive: [10] 108 % of control | [11] 108 % of control
